In US20100266716A1, “Natural Photodynamic Agents and their use” (priority 2007, published 2010):

Columns and labels:
Type in all cases: cell-based
Staphylococcus aureus [1] = experiment: Photocatalytic food dyes Log10 counts (Example 2); conditions: Staph. aureus
Text: (§1) Test microorganisms included Salmonella choleraesuis, Staphylococcus aureus, foodborne pathogens of humans. Test Compounds included Methylene blue, Hemoglobin (blood product), Hemin (blood product), Protoporphyrin (blood product), Annatto Extract (15% Norbixin), beet juice, Canthaxanthin (10%), Beta-carotene (1%), Purple carmine 50%, Carmine lake 60%, Black Carrot extract, Tomato lycopene (5%), sodium copper chlorophyllin, grape skin extract, paprika oleoresin, riboflavin, saffron, titanium dioxide, FD&C blue No1., turmeric oleoresin, FD&C blue No. 2, FD&C Green No. 3, FD&C Red No. 2 (Amaranth), FD&C Red No. 40, FD&C Yellow No. 5, and FD&C Yellow No. 6. Compounds were prepared as 1%, 0.1%, 0.01%, by weight, dissolved in water.
(§2) The light source was a full spectrum fluorescent light or LED light and the contact time was 1 and 16 hours. The study temperature was 37° C.
(§3) Approximately 10^6 organisms in 150 uL Cation Adjusted Mueller Hinton Broth (CAMHB) were placed in each of the wells of a 96 peg MBEC device. The lid of the 96 peg MBEC device was placed on the bottom plate containing organism. The device was placed on a shaker, set to 110 rpm, and incubated at 37° C. for 24 hours to produce biofilms.
(§4) The challenge plates were set up using a sterile 96-well microtitre plate using aseptic techniques in the following manner (one organism per plate, per light exposure time, per light source). Test solutions (200 uL) were placed into each well. The lid was transferred to the challenge plate and exposed to the various light sources for the prescribed exposure times (16 hours). Following the treatment, the pegs were transferred to the recovery media (“recovery plate”) then wrapped in tin foil and incubated at 37° C. for 18 to 24 hours. The recovery plate(s) was wrapped in tin foil, incubated at 37° C. for 24 hours and read visually and by a plate reader, set to an optical density measurement of 630 nm, to determine Minimum Biofilm Eradication Concentration (MBEC) by looking at growth or no growth.
(§5) The test was conducted as shown in Example 1, but using Hemin (blood product), Protoporphyrin (blood product), Annatto Extract, and Turmeric. The group of tests organism also included E. Coli 0157H7.

E. coli 0157H7 = experiment: Photocatalytic food dyes Log10 counts (Example 2)
Text: as §1, §2, §3, §4, §5

Salmonella choleraesuis [2] = experiment: Photocatalytic food dyes Log10 counts (Example 2); conditions: S. choleraesuis, Control 7.28
Text: as §1, §2, §3, §4, §5

Salmonella choleraesuis [3] = experiment: MBEC device biofilm photodynamic killing (Example 1); design: key to Killing of Salmonella cholerasuis biofilm (eradication or growth): “−” = biofilm eradication at the mentioned conditions (concentration, exposure time and Light source); “+” = biofilm growth; conditions: for Killing of Salmonella cholerasuis biofilm (eradication or growth): 16 Hours exposure; for effective as photodynamic agent in killing biofilm organisms: Salmonella choleraesuis and Staphylococcus aureus biofilm, summary of Table 1
Text: as §1, §2, §3, §4

Staphylococcus aureus [4] = experiment: as above; design: key to Killing of Staph aureus biofilm (eradication or growth): “−” = biofilm eradication at the mentioned conditions (concentration, exposure time and Light source); “+” = biofilm growth; conditions: for Killing of Staph aureus biofilm (eradication or growth): 16 Hours exposure
Text: as §1, §2, §3, §4

Pseudomonas syringae HB9 = experiment: Photodynamic activity on plant bacterial pathogen (Example 4)
Protocol: Test microorganism included Pseudomonas syringae, a food spoilage microorganism and plant pathogen. Test Compounds included Hemin (blood product), Annatto Extract, and Turmeric. Compounds were prepared as 1%, 0.1%, 0.01%, by weight, in 30% Mueller Hinton Broth in phosphate buffered saline. The light source was a broad spectrum fluorescent light or an LED light and the contact time was 16 hours. The study temperature was 28° C.
Approximately 10^6 organisms in 150 uL Cationic
Adjusted Mueller Hinton Broth were placed in each of the wells of a 96 peg MBEC device. The lid of the 96 peg MBEC device was placed on the bottom plate containing organism. The device was placed on a shaker, set to 110 rpm, and incubated at 28° C. for 24 hours.
The challenge plates were set up using a sterile 96-well microtitre plate using aseptic techniques in the following manner (one organism per plate, per light exposure time, per light source). Test solutions (200 uL) were placed into each well. The lid was transferred to the challenge plate and exposed to the various light sources for the prescribed exposure times (16 hours). Following the treatment, the pegs were transferred to the recovery media (“recovery plate”) then wrapped in tin foil and incubated at 28° C. for 18 to 24 hours.
The recovery plate(s) was wrapped in tin foil, incubated at 28° C. for 24 hours and read visually and by a plate reader, set to an optical density measurement of 630 nm, to determine MBEC growth.

[5] = Fluorescent Light 16 hours, 0.01%, Control 6.48
[6] = Fluorescent Light 16 hours, 0.1%, Control 6.48
[7] = Fluorescent Light 16 hours, 1%, Control 6.48
[8] = LED Light 16 hours, 0.01%, Control 6.95
[9] = LED Light 16 hours, 0.1%, Control 6.95
[10] = LED Light 16 hours, 1%, Control 6.95
[11] = Fluorescent Light 16 hours, 0.01%, Control 6.51
[12] = Fluorescent Light 16 hours, 0.1%, Control 6.51
[13] = Fluorescent Light 16 hours, 1%, Control 6.51
[14] = LED Light 16 hours, 0.01%, Control 6.36
[15] = LED Light 16 hours, 0.1%, Control 6.36
[16] = LED Light 16 hours, 1%, Control 6.36
[17] = Fluorescent Light 16 hours, 0.01%
[18] = Fluorescent Light 16 hours, 0.1%

Compound	Average Log10 counts (Staphylococcus aureus [1]; [5])	Average Log10 counts (Staphylococcus aureus [1]; [6])	Average Log10 counts (Staphylococcus aureus [1]; [7])	Average Log10 counts (Staphylococcus aureus [1]; [8])	Average Log10 counts (Staphylococcus aureus [1]; [9])	Average Log10 counts (Staphylococcus aureus [1]; [10])	Average Log10 counts (E. coli 0157H7; [11])	Average Log10 counts (E. coli 0157H7; [12])	Average Log10 counts (E. coli 0157H7; [13])	Average Log10 counts (E. coli 0157H7; [14])	Average Log10 counts (E. coli 0157H7; [15])	Average Log10 counts (E. coli 0157H7; [16])	Average Log10 counts (Salmonella choleraesuis [2]; [17])	Average Log10 counts (Salmonella choleraesuis [2]; [18])	Average Log10 counts (Salmonella choleraesuis [2]; Fluorescent Light 16 hours, 1%)	Average Log10 counts (Salmonella choleraesuis [2]; LED Light 16 hours, 0.01%)	Average Log10 counts (Salmonella choleraesuis [2]; LED Light 16 hours, 0.1%)	Average Log10 counts (Salmonella choleraesuis [2]; LED Light 16 hours, 1%)	Killing of Salmonella cholerasuis biofilm (eradication or growth) (Salmonella choleraesuis [3]; Fluorescent Light, 0.01%)	Killing of Salmonella cholerasuis biofilm (eradication or growth) (Salmonella choleraesuis [3]; Fluorescent Light, 0.1%)	also measured
CN(C)c1ccc2nc3ccc(=[N+](C)C)cc-3sc2c1 [Methylene blue, reference compound]	3.20 Log10	0.00 Log10	0.00 Log10	5.71 Log10	5.40 Log10	4.84 Log10	3.41 Log10	0.79 Log10	0.35 Log10	1.77 Log10	0.00 Log10	0.00 Log10	0.00 Log10	0.00 Log10	0.00 Log10	2.27 Log10	0.00 Log10	3.20 Log10	−	−	Killing of Salmonella cholerasuis biofilm (eradication or growth) (Salmonella choleraesuis [3]; Fluorescent Light, 1%): −; Killing of Salmonella cholerasuis biofilm (eradication or growth) (Salmonella choleraesuis [3]; LED Light, 0.01%): −; Killing of Salmonella cholerasuis biofilm (eradication or growth) (Salmonella choleraesuis [3]; LED Light, 0.1%): −; Killing of Salmonella cholerasuis biofilm (eradication or growth) (Salmonella choleraesuis [3]; LED Light, 1%): −; Killing of Staph aureus biofilm (eradication or growth) (Staphylococcus aureus [4]; Fluorescent Light, 0.01%): −; Killing of Staph aureus biofilm (eradication or growth) (Staphylococcus aureus [4]; Fluorescent Light, 0.1%): −; Killing of Staph aureus biofilm (eradication or growth) (Staphylococcus aureus [4]; Fluorescent Light, 1%): −; Killing of Staph aureus biofilm (eradication or growth) (Staphylococcus aureus [4]; LED Light, 0.01%): −; Killing of Staph aureus biofilm (eradication or growth) (Staphylococcus aureus [4]; LED Light, 0.1%): −; Killing of Staph aureus biofilm (eradication or growth) (Staphylococcus aureus [4]; LED Light, 1%): −
Hemin	2.21 Log10	0.79 Log10	0.00 Log10	5.52 Log10	3.75 Log10	1.51 Log10	3.17 Log10	3.79 Log10	3.06 Log10	4.18 Log10	4.22 Log10	0.00 Log10	2.79 Log10	3.85 Log10	4.55 Log10	4.02 Log10	4.48 Log10	4.74 Log10	−	−	Average Log10 growth reductions (Pseudomonas syringae HB9; [17]): 1.07 log10 CFU; Average Log10 growth reductions (Pseudomonas syringae HB9; [18]): 0.92 log10 CFU; Average Log10 growth reductions (Pseudomonas syringae HB9; Fluorescent Light 16 hours, 1%): 1.51 log10 CFU; Average Log10 growth reductions (Pseudomonas syringae HB9; LED Light 16 hours, 0.01%): 1.48 log10 CFU; Average Log10 growth reductions (Pseudomonas syringae HB9; LED Light 16 hours, 0.1%): 1.32 log10 CFU; Average Log10 growth reductions (Pseudomonas syringae HB9; LED Light 16 hours, 1%): 3.97 log10 CFU; Killing of Salmonella cholerasuis biofilm (eradication or growth) (Salmonella choleraesuis [3]; Fluorescent Light, 1%): −; Killing of Salmonella cholerasuis biofilm (eradication or growth) (Salmonella choleraesuis [3]; LED Light, 0.01%): +; Killing of Salmonella cholerasuis biofilm (eradication or growth) (Salmonella choleraesuis [3]; LED Light, 0.1%): +; Killing of Salmonella cholerasuis biofilm (eradication or growth) (Salmonella choleraesuis [3]; LED Light, 1%): −; effective as photodynamic agent in killing biofilm organisms (Salmonella choleraesuis [3]): Effective; Killing of Staph aureus biofilm (eradication or growth) (Staphylococcus aureus [4]; Fluorescent Light, 0.01%): +; Killing of Staph aureus biofilm (eradication or growth) (Staphylococcus aureus [4]; Fluorescent Light, 0.1%): +; Killing of Staph aureus biofilm (eradication or growth) (Staphylococcus aureus [4]; Fluorescent Light, 1%): +; Killing of Staph aureus biofilm (eradication or growth) (Staphylococcus aureus [4]; LED Light, 0.01%): +; Killing of Staph aureus biofilm (eradication or growth) (Staphylococcus aureus [4]; LED Light, 0.1%): +; Killing of Staph aureus biofilm (eradication or growth) (Staphylococcus aureus [4]; LED Light, 1%): +
Protoporphyrin	0.00 Log10	0.00 Log10	0.00 Log10	1.29 Log10	0.50 Log10	3.10 Log10	0.44 Log10	0.57 Log10	0.00 Log10	4.04 Log10	3.48 Log10	3.60 Log10	2.10 Log10	2.33 Log10	3.32 Log10	3.40 Log10	3.67 Log10	2.92 Log10	−	−	Killing of Salmonella cholerasuis biofilm (eradication or growth) (Salmonella choleraesuis [3]; Fluorescent Light, 1%): −; Killing of Salmonella cholerasuis biofilm (eradication or growth) (Salmonella choleraesuis [3]; LED Light, 0.01%): +; Killing of Salmonella cholerasuis biofilm (eradication or growth) (Salmonella choleraesuis [3]; LED Light, 0.1%): +; Killing of Salmonella cholerasuis biofilm (eradication or growth) (Salmonella choleraesuis [3]; LED Light, 1%): −; concentration at which useful against Salmonella (Salmonella choleraesuis [3]; LED light): greater than 1%; effective as photodynamic agent in killing biofilm organisms (Salmonella choleraesuis [3]): Effective; concentration at which useful against Salmonella (Salmonella choleraesuis [3]; fluorescent light): greater than 0.01%; Killing of Staph aureus biofilm (eradication or growth) (Staphylococcus aureus [4]; Fluorescent Light, 0.01%): +; Killing of Staph aureus biofilm (eradication or growth) (Staphylococcus aureus [4]; Fluorescent Light, 0.1%): +; Killing of Staph aureus biofilm (eradication or growth) (Staphylococcus aureus [4]; Fluorescent Light, 1%): +; Killing of Staph aureus biofilm (eradication or growth) (Staphylococcus aureus [4]; LED Light, 0.01%): +; Killing of Staph aureus biofilm (eradication or growth) (Staphylococcus aureus [4]; LED Light, 0.1%): +; Killing of Staph aureus biofilm (eradication or growth) (Staphylococcus aureus [4]; LED Light, 1%): +; concentration at which useful against Staph A (Staphylococcus aureus [4]; fluorescent light): greater than 0.1%
